A melting point compilation (Tetko et al.; mined from patent text by program, amines drawn as free bases though some values may be those of a salt)

Row | SMILES | melting point
1 | CC(=O)NCC1CN(c2cc(F)c(N3CCC(n4ccnn4)C(F)C3)c(F)c2)C(=O)O1 (stereo not given) | 176 to 178 °C
2 | O=C1OCC2Cc3ccccc3OC12 (stereo not given) | 107 to 111 °C
3 | CCOC(=O)c1csc(C2OC(COC(=O)c3ccccc3)C(O)C2O)n1 (stereo not given) | 82 to 85 °C
4 | CC1CC(=O)NN=C1c1ccc(OCCCN)cc1 (stereo not given) | 136 to 138 °C
5 | CC(C)(c1ccc(Oc2cccc(N)c2)cc1)c1ccc(Oc2cccc(N)c2)cc1 | 106 to 108 °C
6 | Cc1ccc(C2CCN(C(=O)CCC(=O)c3ccc4c(c3)CCN(C(=O)C(F)(F)F)CC4)CC2)cc1 | 132 to 134 °C
7 | CCOC(=O)c1ccc(Cc2ccc(O)cc2)cn1 | 153 to 156 °C
8 | Nc1c(Cl)cc(C(O)CNCCCCCC(=O)OCCc2ccsc2)cc1Cl (stereo not given) | 71 to 73 °C
9 | COc1ccc([N+](=O)[O-])c2c1CC(C)(C)O2 | 135 to 136 °C
10 | CCCn1nc(C)c(C#N)c1N | 104 to 105 °C
11 | CCCCOc1c(CNC(=O)OC(C)(C)C)n(CC2CC2)c(=O)c2ccc(OCc3ccccc3)cc12 | 106 to 107 °C
12 | COc1cc(N=CN(C)C)c(Cl)cc1C(=O)NC1CN2CCC1CC2 (stereo not given) | 178 to 180 °C
13 | NC(CO)(CCCc1ccc(Sc2cccc(OCc3ccccc3)c2)cc1Cl)CCP(=O)(O)O (stereo not given) | 193 to 196 °C
14 | CC(=O)Nc1ccc(-c2cc(-c3c(-c4cccc(C)n4)nc4ccccn34)ccn2)cc1 | 257 °C
15 | O=[N+]([O-])c1ccc(Cl)c2cc[nH]c12 | 166 to 167 °C
16 | CSc1cnc(OCCOc2ncnc(NS(=O)(=O)c3ccc(C(C)(C)C)cc3)c2Br)nc1 | 120 to 121 °C
17 | Cc1cc(C(C)N(O)C(=O)NCCO)c(C)s1 (stereo not given) | 122 to 124 °C
18 | O=C(O)C1C=CCn2c(=O)n(CCCS)c(=O)n21 (stereo not given) | 119 to 121 °C
19 | COc1cc(C(=O)CBr)cc(Cl)c1OC | 76.5 to 78 °C
20 | Cc1ccc(C(=O)NC2CCN(CCCCl)CC2)cc1 | 150 to 152 °C
21 | ClCCOc1cccc2nc[nH]c12 | 153 to 154 °C
22 | NOP(=O)(c1ccccc1)c1ccccc1 | 104 °C

Row | SMILES | melting point
23 | CCCCC(Cc1ccc(OCCCN(C)C(=O)c2ccc(-c3ccccn3)cc2)cc1)C(=O)O (stereo not given) | 110 to 112 °C
24 | CC#CCOc1cc(-c2ccccc2)ncn1 | 59.6 °C
25 | CON1C(C)(C)CC(OC(=O)c2ccccc2)CC1(C)C | 67 to 68 °C
26 | CN(C)C=CC(=O)c1cccc(NC(=O)C2CCC2)c1 | 155 to 157 °C
27 | NS(=O)(=O)c1cccc(NC(=O)c2cnn3c(C(F)(F)F)cc(-c4ccc(C(F)(F)F)c(F)c4)nc23)c1 | 259 °C
28 | CN(CC(O)c1ccc2[nH]c(=O)[nH]c2c1)C1CCC(c2ccccc2)CC1 (stereo not given) | 238 to 239 °C
29 | O=C1c2cc(O)ccc2NCC1Cc1ccccc1 (stereo not given) | 143 to 149 °C
30 | CC(=O)c1ccc(S(=O)(=O)Nc2nccs2)cc1 | 194 to 195 °C
31 | CCOC(=O)c1csc2c1N(O)CCC2 | 252 to 253 °C
32 | Nc1nc(C#Cc2ccccc2)nc2nc(-c3ccco3)nn12 | > 280 °C
33 | Oc1cc(C(O)C2CCCCC2)c2ccccc2n1 (stereo not given) | > 250 °C
34 | Cc1nnc(-c2ccc3ncn(C4CCN(Cc5ccccc5)CC4)c3c2)o1 | 173 to 174 °C
35 | CC(C)(c1ccc(N)cc1)c1ccc(N)cc1 | 130 to 132 °C
36 | CC12CCC(OS(=O)(=O)C(F)(F)F)=CC1=CCC1C2CCC2(C)C(C(=O)N(C(=S)NC3CCCCC3)C3CCCCC3)CCC12 (stereo not given) | 123 to 124 °C
37 | CCOC(=O)C(S)CC(=O)c1ccc(Oc2ccccc2)cc1 (stereo not given) | 46 to 47.5 °C
38 | CCCCCCCCCOc1cc(C(=O)Nc2c(Cl)cncc2Cl)ccc1OC | 151 to 153 °C
39 | CCOCc1nc2c(N)nc3cc(OCCCCCCNC(C)=O)ccc3c2n1CC(C)(C)NC(=O)NC(C)C | 90 to 110 °C
40 | CCOc1ccc(NS(=O)(=O)c2ccc(NN=CCCCN3C(=O)c4ccccc4C3=O)cc2)cc1 | 156 to 158 °C
41 | O=c1ccc(OS(=O)(=O)C(F)(F)F)n[nH]1 | 130 to 132 °C
42 | CCCOC1(C)CN(C(=O)Nc2ccc(C(F)(F)F)cc2)N=C1c1ccc(Cl)cc1 (stereo not given) | 135 to 138 °C
43 | Cc1cnc(N2CCN(CC[C@H]3CC[C@H](NC(=O)CC4CCOCC4)CC3)CC2)c2ccoc12 | 206 °C
44 | CC1(C)CCC(C)(C)c2cc(C(N)C(=O)Nc3ccc(C(=O)O)c(O)c3)ccc21 (stereo not given) | 240 to 241 °C

Row | SMILES | melting point
45 | CC(C)(C)c1cc(-n2nc3ccc(C(F)(F)F)cc3n2)c(O)c(C(C)(C)C)c1 | 131 to 133 °C
46 | Cc1ccc(-c2[nH]c(-c3ccccc3[N+](=O)[O-])nc2C(=O)Nc2nccs2)cc1 | 203 to 204 °C
47 | C=C(C)CN1Cc2cscc2Nc2ccccc21 | 83 to 84 °C
48 | CN1CCC(C(O)(c2ccn(C)c2)c2ncc[nH]2)CC1 (stereo not given) | 171 °C
49 | CC1=CC(OC(=O)c2ccc([N+](=O)[O-])cc2)C(O)C(C)(C)CC1=O (stereo not given) | 151 to 152 °C
50 | Cn1c(=O)c2nc(-c3ccc(/C=C/C(=O)O)cc3)[nH]c2n(Cc2ccc(C#N)cc2)c1=O | > 350 °C
51 | COc1ccc(C)cc1NC(=O)Nc1ccc(N2CCN(C(=O)Nc3ccc(OCCO)cc3C(F)(F)F)CC2)c(C)c1 | 225 to 228 °C
52 | CCCCCCCCCCCCCCOc1ccc(C(=O)OC)cc1C(C)(C)C | 44 to 45 °C
53 | CCOC(=O)N1CCN(c2nc3cccccc-3n2)CC1 | 136 to 138 °C
54 | O=C1Nc2ccccc2N(C(=O)CN2CCCCC2CN2CCCC2)c2ccccc21 (stereo not given) | 199 to 201 °C
55 | CSc1nc(N)c([N+](=O)[O-])c(N2CCS(=O)CC2)n1 | 239 to 242 °C
56 | COC(=O)c1cc(=O)c2cc(C(F)(F)F)ccc2[nH]1 | 289 to 291 °C
57 | O=C(Nc1ccc(F)cc1F)NN1CC=CCC1 | 136 to 137 °C
58 | CCOC(=O)c1sc2[nH]c(=O)c(=O)[nH]c2c1C | > 300 °C
59 | Nc1nc(N)c(C(=O)NC(Cc2ccccc2)C(=O)NCCNCC(O)COc2cccc3ccccc23)nc1Cl (stereo not given) | 142 to 146 °C
60 | N#Cc1ccc2c(c1)N(C1CC1)C=NS2(=O)=O | 273 to 276 °C
61 | O=Ic1ccc(Cl)cc1[N+](=O)[O-] | 118 °C
62 | CCCCCc1ccc(OCC(O)CCCCCCC(=O)O)cc1 (stereo not given) | 105 to 106 °C
63 | CCOC(=O)c1cccc(C(=O)c2cccnc2-c2ccc(S(C)(=O)=O)cc2)c1 | 125 to 132 °C
64 | Cc1cc([N+](=O)[O-])c(C)cc1O | 121 to 123 °C
65 | CN(CCc1ccc([N+](=O)[O-])cc1)Cc1nc2ccc([N+](=O)[O-])cc2o1 | 69 to 69.5 °C
66 | CNc1snc(C)c1[N+](=O)[O-] | 153 °C

Further lines, results first:

Row | melting point | SMILES
67 | 129 to 131 °C | C#Cc1cccc(N2C(=O)C=CC2=O)c1
68 | 170 to 171 °C | Cc1cc(N2CCC(=O)CC2)c2cc(C)c(-c3ccc(Cl)cc3Cl)n2n1
69 | 110 to 111 °C | CC(C)C(C)(C#N)N1C(=O)c2cccc(O)c2C1=O (stereo not given)
70 | 263 to 265 °C | Cc1c(C)c2c(c(C)c1NC(=O)c1ccccc1)CC(C)(C)O2
71 | 106 to 108 °C | CCOC(=O)c1cn2c3c(ccc(C)c3c1=O)CCC2C (stereo not given)
72 | 148 to 150 °C | COc1cccc2c(Nc3ccc(C)c(O)c3)c(C#N)cnc12
73 | 76.5 to 77 °C | CCCn1nnn(-c2cc(OC(C)C)c(F)cc2F)c1=O
74 | 281 °C | CC(C)(C)NS(=O)(=O)c1cnc(-c2cn(-c3nc(-c4ccc(C(F)(F)F)cc4)cc(C(F)(F)F)n3)cn2)s1
75 | 146 to 148 °C | Cc1cc(-n2cc(I)nc2C)ccc1[N+](=O)[O-]
76 | 234 °C | O=C(Nc1ccc(S(=O)(=O)C(F)(F)F)cc1Cl)c1cc(Cl)c2ccccc2c1O
77 | 184 to 187 °C | CC1(C)Oc2ccc(C#N)cc2C(Nn2ccccc2=O)C1(C)O (stereo not given)
78 | 193 to 195 °C | Cc1c(O[Si](C(C)C)(C(C)C)C(C)C)cc2occ(N3CCC(O)(c4ccc(F)cc4)CC3)c(=O)c2c1Br
79 | 54 to 55 °C | CNC(=O)c1cccc(-c2ccc(OC(C)C(O)CCc3cccnc3)cc2)c1 (stereo not given)
80 | 128 to 130 °C | COC1N=C(c2ccccc2Cl)c2cc(Cl)ccc2-c2cn(C)cc21 (stereo not given)
81 | 192 to 193 °C | Cc1ccn(-c2ccc(C(=O)O)c(Cl)c2)n1
82 | 150 °C | COc1ccc(C(=O)c2c(Cl)cc(Cl)cc2Cl)cc1Cc1ccc(=O)n(C)n1
83 | 156 to 162 °C | CN1C(=O)CC[C@]2(C)c3ccc(Sc4nc5ccc(Cl)cc5s4)cc3CC[C@@H]12

Row | melting point | SMILES
84 | 115 to 118 °C | CCn1c(C)c(C2(c3c(-c4ccc(OC)cc4)nc4sccn34)OC(=O)c3cccnc32)c2ccccc21 (stereo not given)
85 | 186 to 188 °C | COc1cc(Nc2c(C#N)cnc3cc(/C=C/CCO)c(OC)cc23)c(Cl)cc1Cl
86 | 196 to 199 °C | Nc1ccc2c(c1)c(CC(=O)O)cc(=O)n2Cc1ccc(Cl)cc1
87 | 77.8 to 79.2 °C | CCCCOc1ccc(CO)c(Oc2ncc(C(F)(F)F)cc2Cl)c1
88 | 237 to 239 °C | CCc1cccc(C)c1CNc1cc(C(N)=O)nc2c1nc(C)n2C
89 | 93 to 97 °C | Cc1ccc(C)c(C2C(=O)Oc3c2cc(C(C)(C)C)cc3C(C)(C)C)c1 (stereo not given)
90 | 94 to 97 °C | O=C1c2cccc(-c3ccc(C(F)(F)F)cc3)c2CC1Br (stereo not given)
91 | 258 to 260 °C | Cc1[nH]c(C(=O)N2CCC(C(=O)NCCN(C)C)CC2)c(C)c1-c1nc2ccc(C(=O)c3ccccc3)cc2[nH]1
92 | 168 to 170 °C | NS(=O)(=O)c1ccc(-n2nc(C(F)(F)F)cc2-c2ccc(-c3cscn3)cc2)cc1F
93 | 108 to 110 °C | COC(=O)c1nc(N)sc1CCC(C)C
94 | 128 °C | CC1=NN(C)C(=O)C1=Cc1ccc(Cl)cc1Cl
95 | 30 °C | CSc1nc2c(F)cccc2s1
96 | 226 to 227 °C | CCNc1nnc(-c2ccc3ncn(-c4ccc(SC)cc4)c3c2)o1
97 | 191 to 195 °C | C=CCOc1nc2ccccc2c2ncc(C(=O)OCC)c(=O)n12
98 | 85 to 86 °C | CC(C)Cc1nn(C)c(=O)c2cc(Cc3c(F)cccc3Cl)sc12
99 | 195 to 201 °C | CC(C)(C)NC(=O)Nc1nc2nc(NC3CCOCC3)ncc2cc1Oc1ccc(F)cc1F
100 | 218 to 220 °C | Cc1cccc2ncc(NC(=O)Nc3ccc(F)cc3F)c(-c3ccccc3Cl)c12
